The record followed here is patent US10851089B2, “Matrix metalloproteinase (MMP) inhibitors and methods of use thereof” (Foresee Pharmaceuticals Co., Ltd., priority 2018, dated 2020).

Each structure is given as a SMILES string. Read-outs that look alike come from different tables or passages of the source. Bounds are passed on as bounds.

Common to all, as to format: biochemical
Assay [1] concerns the target recombinant human MMP-12 catalytic domain (Homo sapiens (Human), UniProt P39900). Kind of assay: MMP-12 inhibitory assay (fluorogenic substrate cleavage). On the procedure:
(§1) The inhibitory effect of compounds on the rate of cleaving fluorogenic MMP substrate (Enzo, BML-P128) by recombinant human MMP-12 catalytic domain (Enzo, BML-SE138) was carried out by methods known in the art. Briefly, to each well of a 96-well black opaque plate, all the reagents were sequentially added by pipetting, and the final reaction contained 4 nM of recombinant human MMP-12 catalytic domain, 4 μM of fluorogenic MMP substrate, and various concentrations (0.15 nM to 10,000 nM) of tested compound dilutions in HEPES buffer (pH 7.5) containing 10 mM of CaCl2, 0.01% Brij® 35 (polyoxyethylene (23) lauryl ether), and 0.1 mg/ml of BSA.
(§2) The enzyme and compounds were pre-incubated on a shaker to mix in wells. After an hour of mixing, fluorogenic substrate was added to each well. Reaction without enzyme was used as a blank control in the plate. The plate was then fed into a plate reader to measure fluorescence intensity at Excitation/Emission wavelengths of 340 nm/440 nm every 10 mins for at least 1 hour at 37° C. The IC50 of each compound in MMP-12 inhibition was determined by using a readout obtained at time point 30 minutes.

Assay [2] addresses recombinant human MMP-1 (Homo sapiens (Human), UniProt P03956). The assay is described as follows: MMP selectivity assay MMP-1. On the procedure: as §1, §2
(§3) The MMP selectivity assay was performed by using other recombinant human MMPs, including MMP-1, MMP-2, MMP-3, MMP-7, MMP-8, MMP-9, MMP-10, MMP-13, and MMP-14. The IC50 of the compounds for the other recombinant human MMPs was determined as described above in Example 1, and are shown in Table 2.

For assay [3], the target named is recombinant human MMP-2 (Homo sapiens (Human), UniProt P08253). Kind of assay: MMP selectivity assay MMP-2. As to the method:
as §1, §2, §3

In assay [4] the target is recombinant human MMP-7 (Homo sapiens (Human), UniProt P09237). Kind of assay: MMP selectivity assay MMP-7. On the procedure:
as §1, §2, §3

Assay [5] addresses recombinant human MMP-8 (Homo sapiens (Human), UniProt P22894). Kind of assay: MMP selectivity assay MMP-8. On the procedure:
as §1, §2, §3

Assay [6] deals with recombinant human MMP-9 (Homo sapiens (Human), UniProt P14780). Kind of assay: MMP selectivity assay MMP-9. On the procedure: as §1, §2, §3
Assay [7] addresses recombinant human MMP-10 (Homo sapiens (Human), UniProt P09238). Kind of assay: MMP selectivity assay MMP-10. On the procedure:
as §1, §2, §3

recombinant human MMP-12 catalytic domain, sequence (P39900 106-263): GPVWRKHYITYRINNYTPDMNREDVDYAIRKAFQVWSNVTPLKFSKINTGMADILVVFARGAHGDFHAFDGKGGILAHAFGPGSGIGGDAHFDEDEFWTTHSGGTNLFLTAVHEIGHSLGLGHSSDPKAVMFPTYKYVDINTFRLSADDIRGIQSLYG
recombinant human MMP-1, sequence (P03956 100-469): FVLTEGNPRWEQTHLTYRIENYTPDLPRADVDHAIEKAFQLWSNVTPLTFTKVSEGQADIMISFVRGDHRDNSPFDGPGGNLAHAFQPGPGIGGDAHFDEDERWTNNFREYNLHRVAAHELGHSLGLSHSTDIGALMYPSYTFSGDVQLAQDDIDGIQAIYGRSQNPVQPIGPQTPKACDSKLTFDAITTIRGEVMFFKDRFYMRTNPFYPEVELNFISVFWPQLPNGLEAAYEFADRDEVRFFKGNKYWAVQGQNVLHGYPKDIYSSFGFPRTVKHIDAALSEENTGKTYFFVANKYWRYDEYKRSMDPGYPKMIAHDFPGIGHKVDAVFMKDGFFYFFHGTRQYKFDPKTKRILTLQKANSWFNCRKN
recombinant human MMP-9, sequence (P14780 94-707): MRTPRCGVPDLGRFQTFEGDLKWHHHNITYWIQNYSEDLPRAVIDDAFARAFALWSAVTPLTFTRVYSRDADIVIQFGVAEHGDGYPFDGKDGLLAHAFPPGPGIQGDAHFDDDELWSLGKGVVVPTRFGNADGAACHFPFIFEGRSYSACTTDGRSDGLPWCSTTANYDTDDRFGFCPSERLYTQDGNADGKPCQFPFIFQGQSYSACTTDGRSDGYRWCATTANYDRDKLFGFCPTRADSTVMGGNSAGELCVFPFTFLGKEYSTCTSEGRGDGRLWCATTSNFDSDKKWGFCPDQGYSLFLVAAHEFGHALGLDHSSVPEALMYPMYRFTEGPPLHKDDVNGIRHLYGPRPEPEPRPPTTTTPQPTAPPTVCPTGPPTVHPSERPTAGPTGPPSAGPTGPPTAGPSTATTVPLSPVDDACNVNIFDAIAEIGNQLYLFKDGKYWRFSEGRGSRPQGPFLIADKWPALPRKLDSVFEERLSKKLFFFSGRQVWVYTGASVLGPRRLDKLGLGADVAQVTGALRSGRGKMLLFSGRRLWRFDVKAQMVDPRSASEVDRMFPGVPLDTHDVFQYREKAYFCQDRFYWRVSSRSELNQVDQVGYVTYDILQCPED
recombinant human MMP-8, sequence (P22894 101-467): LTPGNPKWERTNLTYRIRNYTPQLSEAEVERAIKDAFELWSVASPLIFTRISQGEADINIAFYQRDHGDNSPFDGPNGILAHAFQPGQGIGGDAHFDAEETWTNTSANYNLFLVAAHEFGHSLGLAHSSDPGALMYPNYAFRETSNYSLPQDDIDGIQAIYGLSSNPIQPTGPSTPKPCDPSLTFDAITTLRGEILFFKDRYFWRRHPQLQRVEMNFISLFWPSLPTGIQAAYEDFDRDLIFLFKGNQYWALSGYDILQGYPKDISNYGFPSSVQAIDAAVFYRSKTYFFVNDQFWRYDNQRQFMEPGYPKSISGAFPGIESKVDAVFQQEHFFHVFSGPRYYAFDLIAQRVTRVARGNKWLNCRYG
recombinant human MMP-7, sequence (P09237 95-267): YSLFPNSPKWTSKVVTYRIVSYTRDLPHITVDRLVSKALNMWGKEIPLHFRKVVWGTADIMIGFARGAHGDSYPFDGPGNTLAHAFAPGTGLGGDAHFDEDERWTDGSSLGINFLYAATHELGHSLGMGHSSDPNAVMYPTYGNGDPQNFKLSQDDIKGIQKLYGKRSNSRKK
recombinant human MMP-2, sequence (P08253 110-660): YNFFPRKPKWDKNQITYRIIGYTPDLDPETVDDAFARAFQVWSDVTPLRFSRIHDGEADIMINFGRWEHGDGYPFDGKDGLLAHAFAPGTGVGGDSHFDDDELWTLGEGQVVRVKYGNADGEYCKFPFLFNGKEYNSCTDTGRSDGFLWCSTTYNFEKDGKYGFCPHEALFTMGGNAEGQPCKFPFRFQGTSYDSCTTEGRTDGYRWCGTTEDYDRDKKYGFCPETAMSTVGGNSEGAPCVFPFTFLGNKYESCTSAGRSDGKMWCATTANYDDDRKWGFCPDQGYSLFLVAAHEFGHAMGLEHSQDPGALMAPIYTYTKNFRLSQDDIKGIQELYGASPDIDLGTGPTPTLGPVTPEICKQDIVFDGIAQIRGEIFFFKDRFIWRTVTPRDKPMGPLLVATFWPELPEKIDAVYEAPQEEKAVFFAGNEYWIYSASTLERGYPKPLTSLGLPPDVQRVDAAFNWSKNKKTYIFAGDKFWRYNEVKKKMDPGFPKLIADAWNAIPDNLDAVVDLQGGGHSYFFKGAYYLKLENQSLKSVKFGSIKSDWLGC
recombinant human MMP-10, sequence (P09238 99-476): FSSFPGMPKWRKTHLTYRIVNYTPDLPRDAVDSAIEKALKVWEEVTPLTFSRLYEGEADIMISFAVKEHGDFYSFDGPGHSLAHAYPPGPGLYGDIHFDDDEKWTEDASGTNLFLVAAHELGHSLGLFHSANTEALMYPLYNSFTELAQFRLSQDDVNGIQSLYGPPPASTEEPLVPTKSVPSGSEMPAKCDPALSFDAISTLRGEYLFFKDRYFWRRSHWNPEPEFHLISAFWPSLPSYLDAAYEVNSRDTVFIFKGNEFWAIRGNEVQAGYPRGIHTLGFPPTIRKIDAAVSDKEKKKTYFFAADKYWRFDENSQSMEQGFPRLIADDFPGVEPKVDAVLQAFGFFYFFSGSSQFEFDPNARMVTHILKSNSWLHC

The IC50 is the point on the concentration scale where inhibition reaches its midpoint. In the case of `Cc1cc(COc2ccc(Sc3ccoc3C3NC(=O)NC3=O)cc2)ccn1` (centres unmarked) [FC-4], the IC50 was less than 10 nM in assay [1] (Table 2 selectivity profile, read-out: MMP-12 activity (IC50)); less than 10 nM in assay [1] (readout at 30 minutes, read-out: MMP-12 IC50); more than 10000 nM in assay [2]; 100 to 1000 nM in assay [3]; more than 10000 nM in assay [4]; 10 to 100 nM in assay [5]. Further, the IC50 in assay [6] and in assay [7] was 100 to 1000 nM in each case.
